The target in data set [1] is T1, WT (Corynebacterium glutamicum, UniProt P26512).
T1 construct: gene lysC; recombinant from pET-28a-AK, His Trap purified, about 48 kDa
T1 sequence (P26512 1-421): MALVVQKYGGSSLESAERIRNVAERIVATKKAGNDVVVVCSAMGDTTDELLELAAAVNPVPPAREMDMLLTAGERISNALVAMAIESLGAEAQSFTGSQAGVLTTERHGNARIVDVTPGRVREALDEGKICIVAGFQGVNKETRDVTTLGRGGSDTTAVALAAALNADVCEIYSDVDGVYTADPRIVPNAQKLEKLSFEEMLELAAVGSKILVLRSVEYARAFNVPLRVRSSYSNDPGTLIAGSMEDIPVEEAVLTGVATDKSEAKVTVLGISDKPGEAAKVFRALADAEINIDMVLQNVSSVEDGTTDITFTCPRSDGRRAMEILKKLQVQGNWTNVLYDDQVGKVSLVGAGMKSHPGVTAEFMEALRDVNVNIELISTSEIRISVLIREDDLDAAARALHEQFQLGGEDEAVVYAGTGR
The data set can be described thus: Microscale thermophoresis of NT-647-NHS-labelled AK (40 nM) with diluted Asp in the enzyme activity measurement system, 28 °C, Monolith NT.115, no Lys added. Conditions: read-out: K d (mM) Asp. It is filed as binding. The protocol: (§1) The purified AK concentration was adjusted to 2–20 μM with labeled buffer. The solid fluorescent dye (NT-647-NHS) was appended with 100% DMSO (30 μL) and dissolved thoroughly after vortex vibration. Then the dyes were adjusted to 2–3 folds of the protein concentration with the marker buffer. Protein and the solid fluorescent dye were mingled in equal proportion for dark reaction 30 min, and then purified according to the purification kit operation. The unlabeled substrate Asp and inhibitor Lys were diluted in the enzymatic activity measurement system, and the final concentration ranged from […], respectively, which they were incubated with the labeled protein (40 nM) at room temperature for 10 min. Then the samples were loaded into the Standard Capillaries from Nano Temper Technologies. Thermophoresis was measured 30 min after incubation at 28 °C on Monolith NT.115.[22] The dissociation constant (Kd) values were fitted by means of the MO. Affinity analysis software.

Data set [2] has as its target T2, CpAK mutant A380C (Corynebacterium glutamicum, UniProt P26512, A362C).
T2 construct: His-tag (pET-28a) (N); made in house; host or cells: E. coli BL21
As to the kind of experiment: biochemical. The arrangement: species or system Corynebacterium pekinense. The settings on record: read-out: Relative activity (%). On the procedure:
(§2) The reaction was performed through adding 20 μL purified enzyme and 20 μL substrate inhibitors (Lys, Thr, Met, Lys + Thr, Lys + Met, Thr + Met, and Lys + Thr + Met) at 0.2, 1, 5, and 10 mM. The reaction was finished by adding volume FeCl3 after 30 min and the absorbance was measured at 540 nm. Water was instead of the substrate inhibitor as blank control. The enzyme activity of blank control was defined as 100%.

In data set [3] the target is T3, CpAK mutant T379N/A380C (Corynebacterium glutamicum, UniProt P26512, A362C/T361N).
T3 construct: His-tag (pET-28a) (N); made in house; host or cells: E. coli BL21
As to the kind of experiment: biochemical. The arrangement: species or system Corynebacterium pekinense. The settings on record: read-out: Relative activity (%). On the procedure: as §2

The next data set deals with WT (wild-type CpAK). As to the kind of experiment: Microscale thermophoresis (MST), WT. It is filed as binding, Corynebacterium pekinense. The settings on record: 28 °C. On the procedure: as §1
The target in data set [4] is T1, WT. The data set can be described thus: Microscale thermophoresis of NT-647-NHS-labelled AK (40 nM) with diluted Lys in the enzyme activity measurement system, 28 °C, Monolith NT.115. The settings on record: read-out: K d (mM) Lys. In kind it is binding. On the procedure: as §1
A general note: MST reads how a fluorescent partner responds to local heating, with and without ligand.

Data set [5] has as its target T2, CpAK mutant A380C. As to the kind of experiment: Microscale thermophoresis (MST), A380C. It is filed as binding, Corynebacterium pekinense. On the procedure: as §1
In data set [6] the target is T3, CpAK mutant T379N/A380C. The data set can be described thus: Microscale thermophoresis (MST), T379N/A380C. In kind it is binding, Corynebacterium pekinense. On the procedure:
as §1

Substrate in data set [7]: N[C@@H](CC(=O)O)C(=O)O
The data set can be described thus: Colorimetric end-point assay (FeCl3, 540 nm) with 0.5-16 mM L-Asp, 10.4 mM ATP, 1.6 mM MgSO4, 800 mM KCl, 800 mM NH4OH, 100 mM Tris-HCl pH 8.0, 28 °C, 30 min; fitted with the Hill equation. In kind it is biochemical. The protocol:
The reaction system (1 mL) contained at the final concentration: 1.6 mM MgSO4, 800 mM KCl, 0.5–16 mM L-Asp, 10.4 mM ATP (dissoluted by 25 mM Tris–HCl), 100 mM Tris–HCl buffer solution (pH 8.0), 10 mM β-mercaptoethanol, and 800 mM NH4OH. The water was instead of L-Asp as blank control. The reaction was generated by adding 50 μL purified enzyme at 28 °C for 30 min, and stopped by adding FeCl3 solution (three parallel, below the same) and the absorbance were determined at 540 nm. The nonlinear curve was fitted by the Hill equation (V = Vmax (S^n)/(K^n + S^n)) using Origin 8.5 software. In the equation, the n value represents the Hill coefficient; the K value is equal to the substrate concentration at half the maximum rate of enzymatic reaction; Vmax and V indicate the maximum velocity and reaction rate, respectively; S means the substrate concentration.

For orientation: Km means the concentration of substrate that gives half-maximal velocity.

In the case of `N[C@@H](CC(=O)O)C(=O)O` [Asp, L-aspartic acid (L-Asp)], on WT [1], the Kd was 655.1 ± 0.9 mM.
For the molecule `C[C@@H](O)[C@H](N)C(=O)O` [Thr, threonine], on CpAK mutant A380C [2], the activity at 200 µM worked out at 78.3 ± 1.19%, the activity at 1000 µM came out at 80.9 ± 3.06%, the activity at 5000 µM worked out at 82.1 ± 3.56% and the activity at 10000 µM is 87.8 ± 3.53%. On CpAK mutant T379N/A380C [3], the activity at 200 µM was 94.6 ± 3.26%, the activity at 1000 µM came to 97.06 ± 0.68%, the activity at 5000 µM came to 97.8 ± 1.95% and the activity at 10000 µM was 98.12 ± 0.44%.
Regarding `NCCCC[C@H](N)C(=O)O` [Lys, lysine], the Kd at WT (wild-type CpAK) came out at 1.32 mM; on WT [4], 1.32 mM; on CpAK mutant A380C [5], 5.32 ± 0.01 mM; on CpAK mutant T379N/A380C [6] it was 9.24 mM. Moreover, the activity at 200 µM on CpAK mutant A380C [2] was 94.8 ± 0.97%; at CpAK mutant T379N/A380C [3], 96.99 ± 0.56%. The activity at 1000 µM worked out at 95.7 ± 1.43% on CpAK mutant A380C [2] and 98.8 ± 4.95% on CpAK mutant T379N/A380C [3]. Besides, the activity at 5000 µM on CpAK mutant A380C [2] was determined as 99.7 ± 0.54%; at CpAK mutant T379N/A380C [3] it was 106.9 ± 0.56%. Moreover, the activity at 10000 µM was found to be 104 ± 1.32% on CpAK mutant A380C [2] and 116 ± 1.81% on CpAK mutant T379N/A380C [3].
`CSCC[C@H](N)C(=O)O` [Met, methionine]: on CpAK mutant A380C [2], the activity at 200 µM amounted to 95.1 ± 1.69%, the activity at 1000 µM turned out to be 97.71 ± 0.85%, the activity at 5000 µM was found to be 98.3 ± 2.6% and the activity at 10000 µM was 98.1 ± 1.89%. On CpAK mutant T379N/A380C [3], the activity at 200 µM amounted to 90.47 ± 0.12%, the activity at 1000 µM came to 96.33 ± 0.56%, the activity at 5000 µM stood at 98.12 ± 0.44% and the activity at 10000 µM amounted to 99.47 ± 0.53%.

B1: WT (Corynebacterium glutamicum ATCC 13032) (protein)
chain: MALVVQKYGGSSLESAERIRNVAERIVATKKAGNDVVVVCSAMGDTTDELLELAAAVNPVPPAREMDMLLTAGERISNALVAMAIESLGAEAQSFTGSQAGVLTTERHGNARIVDVTPGRVREALDEGKICIVAGFQGVNKETRDVTTLGRGGSDTTAVALAAALNADVCEIYSDVDGVYTADPRIVPNAQKLEKLSFEEMLELAAVGSKILVLRSVEYARAFNVPLRVRSSYSNDPGTLIAGSMEDIPVEEAVLTGVATDKSEAKVTVLGISDKPGEAAKVFRALADAEINIDMVLQNVSSVEDGTTDITFTCPRSDGRRAMEILKKLQVQGNWTNVLYDDQVGKVSLVGAGMKSHPGVTAEFMEALRDVNVNIELISTSEIRISVLIREDDLDAAARALHEQFQLGGEDEAVVYAGTGR
notes: recombinant from pET-28a-AK, His Trap purified, about 48 kDa
In the case of B1, the Michaelis-Menten constant (Km) in data set [7] is listed as 4.17 mM.

B2: T379N/A380C (Corynebacterium glutamicum ATCC 13032; A362C/T361N) (protein)
chain: MALVVQKYGGSSLESAERIRNVAERIVATKKAGNDVVVVCSAMGDTTDELLELAAAVNPVPPAREMDMLLTAGERISNALVAMAIESLGAEAQSFTGSQAGVLTTERHGNARIVDVTPGRVREALDEGKICIVAGFQGVNKETRDVTTLGRGGSDTTAVALAAALNADVCEIYSDVDGVYTADPRIVPNAQKLEKLSFEEMLELAAVGSKILVLRSVEYARAFNVPLRVRSSYSNDPGTLIAGSMEDIPVEEAVLTGVATDKSEAKVTVLGISDKPGEAAKVFRALADAEINIDMVLQNVSSVEDGTTDITFTCPRSDGRRAMEILKKLQVQGNWTNVLYDDQVGKVSLVGAGMKSHPGVNCEFMEALRDVNVNIELISTSEIRISVLIREDDLDAAARALHEQFQLGGEDEAVVYAGTGR
notes: recombinant from pET-28a-AK in E. coli BL21, His Trap purified, about 48 kDa
On to B2, for which, in data set [7], the Km was determined as 2.89 mM.

B3: A380C (Corynebacterium glutamicum ATCC 13032; A362C) (protein)
chain: MALVVQKYGGSSLESAERIRNVAERIVATKKAGNDVVVVCSAMGDTTDELLELAAAVNPVPPAREMDMLLTAGERISNALVAMAIESLGAEAQSFTGSQAGVLTTERHGNARIVDVTPGRVREALDEGKICIVAGFQGVNKETRDVTTLGRGGSDTTAVALAAALNADVCEIYSDVDGVYTADPRIVPNAQKLEKLSFEEMLELAAVGSKILVLRSVEYARAFNVPLRVRSSYSNDPGTLIAGSMEDIPVEEAVLTGVATDKSEAKVTVLGISDKPGEAAKVFRALADAEINIDMVLQNVSSVEDGTTDITFTCPRSDGRRAMEILKKLQVQGNWTNVLYDDQVGKVSLVGAGMKSHPGVTCEFMEALRDVNVNIELISTSEIRISVLIREDDLDAAARALHEQFQLGGEDEAVVYAGTGR
notes: as for B2
As to B3, the Km in data set [7] was found to be 3.57 mM.

(Values after PMC8690038, “Mechanism of the feedback-inhibition resistance in aspartate kinase of Corynebacterium pekinense: from experiment to MD simulations” (RSC Advances, 2020).)
